In experiment [1] the target is T1, pseudo-kinase domain (JH2, amino-acids 536-812 with 3 surface mutations W659A, W777A, F794H) of human V617F mutant JAK2 (Homo sapiens, UniProt O60674, F794H/V617F/W659A/W777A).
T1 construct: pseudo-kinase domain (JH2, amino-acids 536-812 with 3 surface mutations W659A, W777A, F794H); His (C); Avi (biotinylated) (C); purchased BPS Bioscience 79498; host or cells: baculovirus expression system
As to the kind of experiment: JAK2 LanthaScreen JH2-V617F binding assay. As to conditions: 50 nM tracer, 1 hour at 25° C., read-out: JH2 BIND V617F IC50. Put shortly: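 This is a TR-FRET tracer-displacement format with a 1 h, 25 °C incubation. It combined 0.26 nM baculovirus-expressed biotinylated JH2-V617F, 50 nM fluorescent JAK2-JH2 tracer and 0.25 nM streptavidin-Tb cryptate in 50 mM Tris pH 7.5, 10 mM MgCl2, 5 mM DTT. Background came from 2 mM ATP, and IC50 values were from four-parameter dose-response fits.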
(Time-resolved FRET reads energy transfer from a long-lived donor to a nearby acceptor.)

Experiment [2] deals with T2, pseudo-kinase domain (JH2, amino-acids 536-812 with 3 surface mutations W659A, W777A, F794H) of human Wild Type JAK2 (Homo sapiens, UniProt O60674, F794H/W659A/W777A).
T2 construct: pseudo-kinase domain (JH2, amino-acids 536-812 with 3 surface mutations W659A, W777A, F794H); His (C); Avi (biotinylated) (C); purchased BPS Bioscience 79463; host or cells: baculovirus expression system
In words: JAK2 LanthaScreen JH2-WT binding assay. As to conditions: 50 nM tracer, 1 hour at 25° C., read-out: JH2 BIND WT IC50. Put shortly: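 Biotinylated His-Avi-tagged JAK2 JH2 (0.145 nM), baculovirus-expressed, incubated with compounds, 50 nM fluorescent JH2 tracer and 0.25 nM streptavidin-Tb, 1 h at 25° C in pH 7.5 Tris buffer with MgCl2 and DTT. Non-specific binding defined with 2 mM ATP. TR-FRET read; IC50 from four-parameter fit.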

Experiment [3] has as its target T3, catalytic domain (JH1, amino acids 826-1132) of human JAK2 (Homo sapiens, UniProt O60674).
T3 construct: catalytic domain (JH1, amino acids 826-1132) of human JAK2; FLAG (N); purchased Carna Biosciences 08-445-20N; host or cells: baculovirus expression system
As to the kind of experiment: JAK2 LanthaScreen JH1 binding assay. As to conditions: 50 nM tracer, 2 hours at 25° C., read-out: JH1 BIND IC50. Put shortly: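 Binding of compounds to biotinylated, FLAG-tagged human JAK2 JH1 (aa 826-1132; 1.5 nM) was measured by LanthaScreen TR-FRET with 50 nM fluorescent tracer and 0.5 nM streptavidin-Tb, in pH 7.5 Tris buffer. Non-specific binding was defined with 2 mM ATP. After 2 h at 25 °C, IC50 was fitted from four-parameter dose-response curves.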

Where only a bound is given, the exact number is not on record here.

T2 sequence (O60674 536-812 W659A/W777A/F794H): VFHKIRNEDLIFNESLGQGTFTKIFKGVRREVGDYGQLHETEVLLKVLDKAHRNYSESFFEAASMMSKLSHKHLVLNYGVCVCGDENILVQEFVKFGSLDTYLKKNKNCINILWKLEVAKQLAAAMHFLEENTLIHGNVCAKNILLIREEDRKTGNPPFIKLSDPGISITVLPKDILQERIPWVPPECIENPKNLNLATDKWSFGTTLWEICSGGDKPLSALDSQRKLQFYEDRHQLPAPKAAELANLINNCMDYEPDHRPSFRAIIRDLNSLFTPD
T3 sequence (O60674 826-1132): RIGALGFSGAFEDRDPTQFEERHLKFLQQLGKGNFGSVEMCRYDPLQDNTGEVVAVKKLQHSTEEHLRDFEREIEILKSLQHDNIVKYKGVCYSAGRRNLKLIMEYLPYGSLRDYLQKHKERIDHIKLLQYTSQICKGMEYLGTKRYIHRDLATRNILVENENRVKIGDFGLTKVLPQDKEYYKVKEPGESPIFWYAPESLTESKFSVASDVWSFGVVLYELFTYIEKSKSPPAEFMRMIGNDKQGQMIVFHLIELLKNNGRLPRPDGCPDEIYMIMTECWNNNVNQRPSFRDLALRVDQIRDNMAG
T1 sequence (O60674 536-812 V617F/W659A/W777A/F794H): as the sequence (O60674 536-812 W659A/W777A/F794H) above, with V82F counted along it

The term IC50 denotes the midpoint of a concentration-inhibition curve. In the case of `COC(=O)N[C@H]1C[C@H](N2C(=O)NCc3cnc4[nH]c(-c5ccc(CN6CCOCC6)cc5)c(-c5ccc6c(cnn6C(C)C)c5)c4c32)C1` [Example 33, Methyl ((1r,3r)-3-(9-(1-isopropyl-1H-indazol-5-yl)-8-(4-(morpholinomethyl)phenyl)-2-oxo-2,3,4,7-tetrahydro-1H-pyrrolo[3′,2′:5,6]pyrido[4,3-d]pyrimidin-1-yl)cyclobutyl)carbamate], the IC50 is no more than 10 nM in experiment [1], no more than 10 nM in experiment [2] and greater than 1000 nM in experiment [3].
Take `CC(C)n1ncc2cc(-c3c(-c4cnn(C)c4)[nH]c4ncc5c(c34)N(C3CCN(C(=O)NCC(F)F)CC3)C(=O)NC5)ccc21` [Example 17, N-(2,2-Difluoroethyl)-4-(9-(1-isopropyl-1H-indazol-5-yl)-8-(1-methyl-1H-pyrazol-4-yl)-2-oxo-2,3,4,7-tetrahydro-1H-pyrrolo[3′,2′:5,6]pyrido[4,3-d]pyrimidin-1-yl)piperidine-1-carboxamide]: the IC50 is 10 to 100 nM in experiment [1], 10 to 100 nM in experiment [2] and greater than 1000 nM in experiment [3].
Regarding `CC(C)n1ncc2cc(-c3c(-c4cnn(C)c4)[nH]c4ncc5c(c34)N(C3CCC4(CC3)CN(S(=O)(=O)C3(C)CC3)C4)C(=O)NC5)ccc21` [Example 20, 9-(1-isopropyl-1H-indazol-5-yl)-8-(1-methyl-1H-pyrazol-4-yl)-1-(2-((1-methylcyclopropyl)sulfonyl)-2-azaspiro[3.5]nonan-7-yl)-1,3,4,7-tetrahydro-2H-pyrrolo [3′,2′:5,6]pyrido[4,3-d]pyrimidin-2-one], the IC50 was 10 to 100 nM in experiment [1], 10 to 100 nM in experiment [2] and greater than 1000 nM in experiment [3].
For the molecule `CC(C)n1ncc2cc(-c3c(-c4cnn(C)c4)[nH]c4ncc5c(c34)N([C@H]3C[C@@H](NC(=O)c4nc(C(F)(F)F)cs4)C3)C(=O)NC5)ccc21` [Example 22, N-((1s,3s)-3-(9-(1-isopropyl-1H-indazol-5-yl)-8-(1-methyl-1H-pyrazol-4-yl)-2-oxo-2,3,4,7-tetrahydro-1H-pyrrolo[3′,2′:5,6]pyrido[4,3-d]pyrimidin-1-yl)cyclobutyl)-4-(trifluoromethyl)thiazole-2-carboxamide], the half-maximal inhibitory concentration (IC50) in experiment [1] was 100 to 500 nM; in experiment [2], 100 to 500 nM; in experiment [3] it was greater than 1000 nM.
As for `COC(=O)N[C@@H]1CC[C@@H](N2C(=O)NCc3cnc4[nH]c(-c5cnn(C)c5)c(-c5ccc6c(cnn6C(C)C)c5)c4c32)C1` [Example 30, Methyl ((1R,3R)-3-(9-(1-isopropyl-1H-indazol-5-yl)-8-(1-methyl-1H-pyrazol-4-yl)-2-oxo-2,3,4,7-tetrahydro-1H-pyrrolo[3′,2′:5,6]pyrido[4,3-d]pyrimidin-1-yl)cyclopentyl) carbamate], the values for the IC50 in experiment [1], in experiment [2] and in experiment [3] were no more than 10 nM, no more than 10 nM and greater than 1000 nM, respectively.
`COC(=O)N[C@@H]1CC[C@@H](n2c(=O)[nH]c(=O)c3cnc4[nH]c(-c5cnn(C)c5)c(-c5ccc6c(cnn6C(C)C)c5)c4c32)C1` [Example 39, Methyl ((1R,3R)-3-(9-(1-isopropyl-1H-indazol-5-yl)-8-(1-methyl-1H-pyrazol-4-yl)-2,4-dioxo-2,3,4,7-tetrahydro-1H-pyrrolo[3′,2′:5,6]pyrido[4,3-d]pyrimidin-1-yl)cyclopentyl)carbamate]: the half-inhibitory concentration (IC50) was 10 to 100 nM in experiment [1], 10 to 100 nM in experiment [2] and greater than 1000 nM in experiment [3].
With `CC(=O)N[C@@H]1CC[C@@H](N2C(=O)NCc3cnc4[nH]c(-c5cnn(C)c5)c(-c5ccc6c(cnn6C(C)C)c5)c4c32)C1` [Example 9, N-((1R,3R)-3-(9-(1-Isopropyl-1H-indazol-5-yl)-8-(1-methyl-1H-pyrazol-4-yl)-2-oxo-2,3,4,7-tetrahydro-1H-pyrrolo[3′,2′:5,6]pyrido[4,3-d]pyrimidin-1-yl)cyclopentyl) acetamide], the values for the IC50 in experiment [1], in experiment [2] and in experiment [3] were 10 to 100 nM, 10 to 100 nM and greater than 1000 nM, respectively.
